≈ marks a conversion by molar mass, not a printed value.
What was measured:
Assay in all cases: MIC, CLSI broth microdilution, Test Example 1
Assay type in all cases: cell-based
P. aeruginosa SR24 = settings: Ceftazidime resistance strain, cation-adjusted Mueller Hinton broth containing human apo-transferrin, 5×10^5 cfu/mL; for MIC: Pseudomonas aeruginosa, SR24, read-out: Minimum Inhibitory Concentration (MIC) P. aeruginosa SR24
P. aeruginosa SR24837 = settings: PER-1 ESBL producing strain, cation-adjusted Mueller Hinton broth containing human apo-transferrin, 5×10^5 cfu/mL; for MIC: Pseudomonas aeruginosa, SR24837, read-out: Minimum Inhibitory Concentration (MIC) P. aeruginosa SR24837
Description: (§1) Measurement of Minimum Inhibitory Concentration (MIC: μg/mL) was conducted according to CLSI (Clinical and Laboratory Standards Institute) method, and the amount of bacteria for inoculation was 5×10^5 cfu/mL, and cation-adjusted Mueller Hinton broth containing human apo-transferrin was used as a test medium, and the experiment was conducted using broth microdilution method. The bacteria used are listed below.

E. coli ATCCBAA-200 = settings: SHV-4 ESBL producing strain, cation-adjusted Mueller Hinton broth containing human apo-transferrin, 5×10^5 cfu/mL; for MIC: Escherichia coli, ATCCBAA200, read-out: Minimum Inhibitory Concentration (MIC) E. coli ATCC BAA-200
Description: as §1

A. baumannii SR27323 = settings: OXA-23, OXA-58 carbapenemase producing strain, cation-adjusted Mueller Hinton broth containing human apo-transferrin, 5×10^5 cfu/mL; for MIC: Acinetobacter baumannii, SR27323, read-out: Minimum Inhibitory Concentration (MIC) A. baumannii SR27323
Description: as §1

[1] = tested on: K. pneumoniae ATCCBAA-1705; settings: KPC-2 carbapenemase producing strain, cation-adjusted Mueller Hinton broth containing human apo-transferrin, 5×10^5 cfu/mL; for MIC: Klebsiella pneumoniae, ATCCBAA1705, read-out: Minimum Inhibitory Concentration (MIC) K. pneumoniae ATCCBAA-1705
Description: as §1

E. coli ATCCBAA-199 = settings: SHV-3 ESBL producing strain, cation-adjusted Mueller Hinton broth containing human apo-transferrin, 5×10^5 cfu/mL; for MIC: Escherichia coli, ATCCBAA199, read-out: Minimum Inhibitory Concentration (MIC) E. coli ATCC BAA-199
Description: as §1

P. aeruginosa SR27060 = settings: IMP-1 MBL producing strain (carbapenem resistance strain), cation-adjusted Mueller Hinton broth containing human apo-transferrin, 5×10^5 cfu/mL; for MIC: Pseudomonas aeruginosa, SR27060, read-out: Minimum Inhibitory Concentration (MIC) P. aeruginosa SR27060
Description: as §1

MIC (P. aeruginosa SR24) [µg/mL] | MIC (P. aeruginosa SR24837) [µg/mL] | MIC (E. coli ATCCBAA-200) [µg/mL] | MIC (A. baumannii SR27323) [µg/mL] | MIC [1] [µg/mL] | MIC (E. coli ATCCBAA-199) [µg/mL] | MIC (P. aeruginosa SR27060) [µg/mL] | Compound | Minimum Inhibitory Concentration (MIC) P. aeruginosa SR24 (P. aeruginosa SR24) [µg/mL] | Minimum Inhibitory Concentration (MIC) P. aeruginosa SR24837 (P. aeruginosa SR24837) [µg/mL] | Minimum Inhibitory Concentration (MIC) E. coli ATCC BAA-200 (E. coli ATCCBAA-200) [µg/mL] | Minimum Inhibitory Concentration (MIC) A. baumannii SR27323 (A. baumannii SR27323) [µg/mL] | Minimum Inhibitory Concentration (MIC) K. pneumoniae ATCCBAA-1705 [1] | Minimum Inhibitory Concentration (MIC) E. coli ATCC BAA-199 (E. coli ATCCBAA-199) [µg/mL] | Minimum Inhibitory Concentration (MIC) P. aeruginosa SR27060 (P. aeruginosa SR27060) [µg/mL]
0.125 | 0.25 | 0.125 | 0.25 | ≤ 0.031 | 0.063 | 0.25 | CC(C)(O/N=C(\C(=O)N[C@@H]1C(=O)N2C(c3nnn[n-]3)=C(C[n+]3cccc(NC(=O)c4ccc(O)c(O)c4Cl)c3)CS[C@H]12)c1csc(N)n1)C(=O)[O-].[Na+] [Compound I-73] | – | – | – | – | – | – | –
0.125 | 0.5 | 0.125 | 0.5 | ≤ 0.031 | 0.063 | 0.25 | CC(C)(O/N=C(\C(=O)N[C@@H]1C(=O)N2C(c3nnn[n-]3)=C(Cn3cc[n+](CCNC(=O)c4ccc(O)c(O)c4Cl)c3)CS[C@H]12)c1csc(N)n1)C(=O)[O-].[Na+] [Compound I-74] | – | – | – | – | – | – | –
0.063 (≈ 0.0791 µM) | 0.063 (≈ 0.0791 µM) | 0.5 (≈ 0.628 µM) | 1 (≈ 1.26 µM) | 0.063 (≈ 0.0791 µM) | 0.125 (≈ 0.157 µM) | 0.25 (≈ 0.314 µM) | CC(C)(O/N=C(\C(=O)N[C@@H]1C(=O)N2C(c3nnn[nH]3)=C(C[n+]3cccc4c3CCCN4C(=O)c3ccc(O)c(O)c3Cl)CS[C@H]12)c1csc(N)n1)C(=O)[O-] [Compound I-75] | – | – | – | – | – | – | –
0.125 (≈ 0.155 µM) | 0.125 (≈ 0.155 µM) | 0.5 (≈ 0.62 µM) | 0.5 (≈ 0.62 µM) | ≤ 0.031 | 0.25 (≈ 0.31 µM) | 0.5 (≈ 0.62 µM) | CC(C)(O/N=C(\C(=O)N[C@@H]1C(=O)N2C(c3nnn[nH]3)=C(C[n+]3cccc4c(NC(=O)c5ccc(O)c(O)c5Cl)cccc43)CS[C@H]12)c1csc(N)n1)C(=O)[O-] [Compound I-76] | – | – | – | – | – | – | –
≤ 0.031 | ≤ 0.031 | 0.063 | 0.125 | ≤ 0.031 | ≤ 0.031 | 0.25 | CC(C)(O/N=C(\C(=O)N[C@@H]1C(=O)N2C(c3nnn[n-]3)=C(C[n+]3ccc4cc(O)c(O)cc4c3)CS[C@H]12)c1csc(N)n1)C(=O)[O-].[Na+] [Compound I-77] | – | – | – | – | – | – | –
0.125 (≈ 0.155 µM) | 0.125 (≈ 0.155 µM) | 0.5 (≈ 0.62 µM) | 0.25 (≈ 0.31 µM) | ≤ 0.031 | 0.25 (≈ 0.31 µM) | 0.25 (≈ 0.31 µM) | CC(C)(O/N=C(\C(=O)N[C@@H]1C(=O)N2C(c3nnn[nH]3)=C(C[n+]3ccc(NC(=O)c4ccc(O)c(O)c4Cl)c4ccccc43)CS[C@H]12)c1csc(N)n1)C(=O)[O-] [Compound I-78] | – | – | – | – | – | – | –
≤ 0.031 | 0.063 | 1 | 0.125 | ≤ 0.031 | 0.5 | 0.25 | CC(C)(O/N=C(\C(=O)N[C@@H]1C(=O)N2C(c3nnn[n-]3)=C(C[n+]3ccc(-c4ccc(O)c(O)c4Cl)cc3)CS[C@H]12)c1csc(N)n1)C(=O)[O-].[Na+] [Compound I-79] | – | – | – | – | – | – | –
≤ 0.031 | 0.125 | 1 | 2 | ≤ 0.031 | 0.5 | 0.25 | CC(C)(O/N=C(\C(=O)N[C@@H]1C(=O)N2C(c3nnn[n-]3)=C(C[N+]34CCCC3(CNC(=O)c3ccc(O)c(O)c3Cl)CCC4)CS[C@H]12)c1cnc(N)s1)C(=O)[O-].[Na+] (stereo partly shown) [Compound I-80] | – | – | – | – | – | – | –
0.063 | ≤ 0.031 | 0.125 | 0.5 | 0.063 | 0.063 | 0.5 | CC(C)(O/N=C(\C(=O)N[C@@H]1C(=O)N2C(c3nnn[n-]3)=C(C[N+]3(CCNC(=O)c4ccc(O)c(O)c4Cl)CCCC3)CS[C@H]12)c1nc(N)sc1Cl)C(=O)[O-].[Na+] [Compound I-88] | – | – | – | – | – | – | –
– | – | – | – | – | – | – | Nc1nc(C(=NOC(CC(=O)[O-])C(=O)[O-])C(=O)NC2C(=O)N3C(c4nnn[n-]4)=C(C[N+]4(CCNC(=O)c5ccc(O)c(O)c5Cl)CCCC4)CSC23)c(Cl)s1.[Na+].[Na+] (stereo not shown) [Compound I-91] | 0.063 | 0.063 | 0.25 | 0.5 | ≦0.031 μg/ml | 0.125 | 0.125
